Results on five molecules are retold here after patent US9200268B2, “Compounds and methods for purification of serine proteases” (Portola Pharmaceuticals, Inc., priority 2012, dated 2015).

In this assay the target is human plasma protein factor Xa (Homo sapiens (Human), UniProt P00742). Put plainly: FXa inhibitory activity, IC50 determination (cleavage of paranitroanilide substrate S-2765). The format is biochemical. The note with it: factor Xa 1 nM, S2765 100 μM, Tris buffered saline pH 7.4. From the text: This example illustrates methods for evaluating the compounds, along with results obtained for such assays. As mentioned above, the compound may be selected based on its factor Xa inhibitory activity. The in vitro factor Xa activities of the compounds can be determined by various procedures known in the art. […] The IC50 value is the concentration (in nM) of the compound required to provide 50% inhibition of factor Xa proteolytic activity.
Sequence of human plasma protein factor Xa (P00742 41-179): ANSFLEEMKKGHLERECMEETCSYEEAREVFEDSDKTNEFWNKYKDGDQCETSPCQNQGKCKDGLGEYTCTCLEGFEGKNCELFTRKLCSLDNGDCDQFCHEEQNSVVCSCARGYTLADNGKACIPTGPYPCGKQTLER
Sequence of human plasma protein factor Xa (P00742 235-488): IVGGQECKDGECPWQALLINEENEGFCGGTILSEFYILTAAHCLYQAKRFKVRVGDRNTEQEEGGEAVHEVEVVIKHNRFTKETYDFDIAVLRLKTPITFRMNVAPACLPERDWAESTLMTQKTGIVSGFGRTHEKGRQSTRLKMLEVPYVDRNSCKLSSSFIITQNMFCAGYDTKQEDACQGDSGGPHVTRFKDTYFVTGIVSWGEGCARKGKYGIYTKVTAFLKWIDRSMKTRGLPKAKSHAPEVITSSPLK
An in vitro assay for detecting and measuring inhibition activity against factor Xa is as follows:
The substrate S-2765 (Z-D-Arg-Gly-Arg-pNA.HCl) can be obtained from Diapharma (West Chester, Ohio).
The human plasma protein factor Xa can be purchased from Haematologic Technologies (Essex Junction, Vt.).
All assays, which are performed in 96-well microtiter plates, measure proteolytic activity of the enzyme (factor Xa) by following cleavage of a paranitroanilide peptide substrate. The assay buffer used for proteolytic assays was Tris buffered saline (20 mM Tris, 150 mM NaCl, 5 mM CaCl2, 0.1% Bovine serum albumin (BSA), 5% dimethly sulfoxide (DMSO) pH 7.4). In a 96-well microtiter plate, inhibitor was serially diluted to give a range of final concentrations from 0.01 nM to 10 μM. Duplicate sets of wells were assayed and control wells without inhibitor were included. Enzyme was added to each well, (factor Xa concentration=1 nM), the plate was shaken for 5 seconds and then incubated for 5 minutes at room temperature. S2765 was added (100 μM final) and the plate was shaken for 5 seconds (final volume in each well was 200 μL). The degree of substrate hydrolysis was measured at 405 nm on a Thermomax plate reader (Molecular Devices, Sunnyvale, Calif.) for 2 minutes. The initial velocities of substrate cleavage (mOD/min), for each range of inhibitor concentrations, were fitted to a four parameter equation using Softmax data analysis software. The parameter C, derived from the resulting curve-fit, corresponded to the concentration for half maximal inhibition (IC50).

Structures are written as SMILES.

Regarding `CN(C)C(=N)c1ccc(C(=O)Nc2ccc(OCC(=O)NCCCCCCN)cc2C(=O)Nc2ccccn2)cc1`, the midpoint of inhibition, the IC50, lay at 227 nM.

On to `CN(C)C(=N)c1ccc(C(=O)Nc2ccc(OCC(=O)NCCCCCCN)cc2C(=O)Nc2ccc(Cl)cn2)cc1`, for which the IC50 (commonly the concentration needed to halve the response being measured) turned out to be 24 nM.

Molecule `NCCCCCCNc1cc(C(F)(F)F)ccc1C(=O)Nc1ccc(Cl)cc1C(=O)Nc1ccc(Cl)cn1` yielded an IC50 of 615 nM.

For `CS(=O)(=O)c1ccc(C(=O)Nc2ccc(Cl)cc2C(=O)Nc2ccc(Cl)cn2)c(NCCCCCCN)c1`, inhibition was half-maximal at 158 nM (IC50).

`CS(=O)(=O)c1ccc(C(=O)Nc2ccc(Cl)cc2C(=O)Nc2ccc(Cl)cn2)c(NCCCCCCCN)c1` returned an IC50 of 320 nM.
